# Source: US12478624B2, “Heterocyclic derivatives, pharmaceutical compositions and their use in the treatment or amelioration of cancer” (Tolremo Therapeutics AG, priority 2019, dated 2025)
# Experiments:
# A375 cells = assay: Assay 1: A375 cells treated with S1152, S1008 and compound, immunofluorescence (sc-365823) signal; assay type: cell-based; settings: 1 μM S1152 + 0.5 μM S1008, one day
# Method: One thousand four hundred A375 cells were seeded in each well of a 384 well microplate. One day later they were treated with 1 μM S1152 (Selleckchem) in dimethyl sulfoxide, 0.5 μM S1008 (Selleckchem) and dose ranges of invention compounds for one day in Dulbecco's Modified Eagle's Medium supplemented with 10% fetal calf serum and 2 mM (2S)-2-amino-4-carbamoylbutanoic acid. Wells were incubated with 4% polyoxymethylene (Sigma Aldrich 158127) at ambient temperature. […] After one minute phosphate-buffered saline was replaced with 0.2% polyethylene glycol octylphenyl ether in phosphate-buffered saline. […] 1% aminoethanoic acid in phosphate-buffered saline was added for ten minutes at ambient temperature. […] After one hour at ambient temperature in the dark, signal in wells was measured with a Acumen Cellista. 3,8-Diamino-5-[3-(diethylmethylammonio)propyl]-6-phenylphenanthridinium diiodide-positive objects were defined in FL3 (565-600 nm) with a perimeter between 50-800 μm and a total intensity of 10000-1000000 FLU. Signal in FL2 (500-530 nm) was measured in defined objects. A normalized ratio of total In FL2 over total In FL3 staining was log transformed. A non-linear regression (variable slope, 4 parameters) was used to calculate EC50 values using GraphPad Prism (Version 7.0d).
# In an alternative procedure, assay 1 has been affected by changing the counteratain. […] Cells were incubated with 0.5 μg/ml 2-(4-Amidinophenyl)-6-indolecarbamidine dihydrochloride, 4′,6-Diamidino-2-phenylindole dihydrochloride (Sigma D9542) in phosphate-buffered saline for at least 30 minutes at ambient temperature in the dark. A Celigo Imager (Nexcelom) was used to acquire images in the blue and green channel. The blue channel was used as a mask to define the area for the green signal. The average integrated intensity of the green signal was normalized and a non-linear regression (variable slope, 4 parameter) was used to calculate the EC50 values using GraphPad Prism (Version 8.4)
# OPM-2 = assay: Assay 2: multiple myeloma cellular efficacy, PrestoBlue cell proliferation/survival; assay type: cell-based; settings: Homo sapiens, 96 h, OPM-2 cells, 4 days
# Method: Multiple Myeloma Cellular Efficacy:
# 10000 OPM-2 (ACC50; DSMZ) were plated into wells of a 384 well plate (Greiner 781090). Cells were treated for 4 days with a dose range of compound or vehicle. At the end of the experiment cells were stained directly with PrestoBlue (ThermoFisher Scietific; A13262) for 2 hours at 37° C. in a humidified incubator according to manufactor's instruction. To assess the relative cell number the PrestoBlue signal was measured using either a TecanM1000Pro reader or a Tecan Sparks reader following the manufactor's instructions. Background (no cells) values were subtracted and set in relation to the vehicle control. To assess the EC50 of each compound the relative fluorescence value was plotted against the compound concentration after log transformation. Data were fitted in a nonlinear manner with a variable slope (four parameters) using graphpad prism software. Cellular efficacy of compounds was evaluated in the multiple myeloma cell line OPM-2 using the cell proliferation/survival assay PrestoBlue. EC50 values are classified as indicated below.
SMILES,EC50 (A375 cells) [µM],EC50 (OPM-2) [µM],"EC50 (A375 cells; Homo sapiens, A-375, 24 h) [µM]"
"CC(=O)N1C[C@H](c2nc(Nc3cccc(-c4nnc(C)o4)c3)cc(-c3cccnc3)n2)CC[C@@H]1C [Compound 00142, 1-((2S,5R)-2-methyl-5-(4-((3-(5-methyl-1,3,4-oxadiazol-2-yl)phenyl)amino)-6-(pyridin-3-yl)pyrimidin-2-yl)piperidin-1-yl)ethan-1-one]",< 0.2,< 0.2,–
"CC(=O)N1C[C@H](c2nc(Nc3cccc(NC(=O)C4CC4)c3)cc(-c3cccnc3)n2)CC[C@@H]1C [Compound 00089, N-(3-((2-((3R,6S)-1-acetyl-6-methylpiperidin-3-yl)-6-(pyridin3-yl)pyrimidin-4-yl)amino)phenyl)-cyclopropanecarboxamide]",< 0.2,< 0.2,–
"CC(=O)N1C[C@H](c2nc(Nc3cccc(NC(=O)c4ccccc4)c3)cc(-c3cccnc3)n2)CC[C@@H]1C [Compound 00079, N-(3-((2-((3R,6S)-1-acetyl-6-methylpiperidin-3-yl)-6-(pyridin-3-yl)pyrimidin-4-yl)amino)phenyl)benzamide]",< 0.2,< 0.2,–
"CC(=O)N1C[C@H](c2nc(Nc3cccc4c3cnn4C)cc(-c3cccnc3)n2)CC[C@@H]1C [Compound 00056, 1-((2S,5R)-2-methyl-5-(4-((1-methyl-1H-indazol-4-yl)amino)-6-(pyridin-3-yl)pyrimidin-2-yl)piperidin-1-yl)ethan-1-one]",< 0.2,< 0.2,–
"CC(=O)N1C[C@H](c2nc(Nc3ccnc(C)c3)cc(-c3cncc(N4C[C@@H]5C[C@H]4CO5)c3)n2)CC[C@@H]1C [Compound 00115, 1-((2S,5R)-5-(4-(5-((1S,4S)-2-oxa-5-azabicyclo[2.2.1]heptan-5-yl)pyridin-3-yl)-6-((2-methylpyridin-4-yl)amino)pyrimidin-2-yl)-2-methylpiperidin-1-yl)ethan-1-one]",< 0.2,0.2 to 1,–
"CC(=O)N1C[C@H](c2nc(Nc3ccnc(C)c3)cc(-c3cncc(N4CC(C(=O)N(C)C)C4)c3)n2)CC[C@@H]1C [Compound 00113, 1-(5-(2-((3R,6S)-1-acetyl-6-methylpiperidin-3-yl)-6-((2-methylpyridin-4-yl)amino)pyrimidin-4-yl)pyridin-3-yl)-N,N-dimethylazetidine-3-carboxamide]",1 to 10,1 to 10,–
"CC(=O)N1C[C@H](c2nc(Nc3cccc(-c4cn(C)nn4)c3)cc(-c3cnccn3)n2)CC[C@@H]1C [Compound 00068, 1-((2S,5R)-2-methyl-5-(4-((3-(1-methyl-1H-1,2,3-triazol-4-yl)phenyl)amino)-6-(pyrazin-2-yl)pyrimidin-2-yl)piperidin-1-yl)ethan-1-one]",< 0.2,< 0.2,–
"CC(=O)N1C[C@H](c2nc(Nc3cccc(N4CCC4=O)c3)cc(-c3cccnc3)n2)CC[C@@H]1C [Compound 00087, 1-(3-((2-((3R,6S)-1-acetyl-6-methylpiperidin-3-yl)-6-(pyridin-3-yl)pyrimidin-4-yl)amino)phenyl)azetidin-2-one]",< 0.2,0.2 to 1,–
"CC(=O)Nc1ccc(Nc2cc(-c3cccnc3)nc([C@@H]3CC[C@H](C)N(C(C)=O)C3)n2)cc1O [Compound 00036, N-(4-((2-((3R,6S)-1-acetyl-6-methylpiperidin-3-yl)-6-(pyridin-3-yl)pyrimidin-4-yl)amino)-2-hydroxyphenyl)acetamide]",1 to 10,–,–
"CC(=O)N1C[C@H](c2nc(Nc3ccc4cn[nH]c4c3)cc(-c3cccnc3)n2)CC[C@@H]1C [Compound 00029, 1-((2S,5R)-5-(4-((1H-indazol-6-yl)amino)-6-(pyridin-3-yl)pyrimidin-2-yl)-2-methylpiperidin-1-yl)ethan-1-one]",0.2 to 1,–,–
CC(=O)N1C[C@H](c2nc(Nc3ccncc3)cc(-c3cccnc3)n2)CC[C@@H]1C [Compound 00006],0.2 to 1,–,–
"CC[C@@H]1CC[C@@H](c2nc(Nc3cccc(C)c3)cc(-c3cccnc3)n2)CN1C(C)=O (racemic) [Compound 00019, (+/−)-frans-1-(2-ethyl-5-(4-(pyridin-3-yl)-6-(m-tolylamino)pyrimidin-2-yl)piperidin-1-yl)ethan-1-one]",–,–,> 10
"CC(=O)N1C[C@H](c2nc(Nc3ccnc(C)c3)cc(-c3cncc(N4CCCC4=O)c3)n2)CC[C@@H]1C [Compound 00108, 1-(5-(2-((3R,6S)-1-acetyl-6-methylpiperidin-3-yl)-6-((2-methylpyridin-4-yl)amino)pyrimidin-4-yl)pyridin-3-yl)pyrrolidin-2-one]",0.2 to 1,–,–
"CC[C@H]1CC[C@@H](c2nc(Nc3cccc(F)c3)cc(-c3cccnc3)n2)CN1C(C)=O (racemic) [Compound 00020, (+/−)-c/s-1-(2-ethyl-5-(4-((3-fluorophenyl)amino)-6-(pyridin-3-yl)pyrimidin-2-yl)piperidin-1-yl)ethan-1-one]",–,–,1 to 10
"COc1cncc(-c2cc(Nc3cccc(Cl)c3)nc([C@@H]3CC[C@@H](C)N(C(C)=O)C3)n2)c1 (racemic) [Compound 00017, (+/−)-trans-1-(5-(4-((3-chlorophenyl)amino)-6-(5-methoxypyridin-3-yl)pyrimidin-2-yl)-2-methylpiperidin-1-yl)ethan-1-one]",–,–,1 to 10
"CC(=O)N1C[C@H](c2nc(Nc3cccc(F)c3)cc(-c3cccnc3)n2)CC[C@H]1C [Compound 00015, (+/+)-trans-1-(5-(4-((3-fluorophenyl)amino)-6-(pyridin-3-yl)pyrimidin-2-yl)-2-methylpiperidin-1-yl)ethan-1-one]",–,–,> 10
"CC(=O)N1C[C@H](c2nc(Nc3cccc(O)c3)cc(-c3cccnc3)n2)CC[C@@H]1C [Compound 00075, 1-((2S,5R)-5-(4-((3-hydroxyphenyl)amino)-6-(pyridin-3-yl)pyrimidin-2-yl)-2-methylpiperidin-1-yl)ethan-1-one]",< 0.2,–,–
[2H]C([2H])([2H])[C@H]1CC[C@@H](c2nc(Nc3cncc(C)c3)cc(-c3cnccn3)n2)CN1C(C)=O [Compound 000012],< 0.2,–,–
"CC(=O)N1C[C@H](c2nc(Nc3cncc(C)c3)cc(-c3cncc4[nH]ccc34)n2)CC[C@@H]1C (racemic) [Compound 00099, (+/−)-cis-1-(2-methyl-5-(4-((5-methylpyridin-3-yl)amino)-6-(1H-pyrrolo[2,3-c]pyridin-4-yl)pyrimidin-2-yl)piperidin-1-yl)ethan-1-one]",0.2 to 1,–,–
"CC(=O)N1C[C@H](c2nc(Nc3cc(F)cc(-c4cnn(C)c4)c3)cc(-c3cncc(N4C[C@@H]5C[C@H]4CO5)c3)n2)CC[C@@H]1C [Compound 00090, 1-((2S,5R)-5-(4-(5-((1S,4S)-2-oxa-5-azabicyclo-[2.2.1]heptan-5-yl)pyridin-3-yl)-6-((3-fluoro-5-(1-methyl-1H-pyrazol-4-yl)phenyl)amino)pyrimidin-2-yl)-2-methylpiperidin-1-yl)ethan-1-one]",–,< 0.2,–
"CC(=O)N1C[C@H](c2nc(Nc3ccnc(C)c3)cc(-c3cncc(C4COC4)c3)n2)CC[C@@H]1C [Compound 00127, 1-((2S,5R)-2-methyl-5-(4-((2-methylpyridin-4-yl)amino)-6-(5-(oxetan-3-yl)pyridin-3-yl)pyrimidin-2-yl)piperidin-1-yl)ethan-1-one]",< 0.2,–,–
"CC(=O)N1C[C@H](c2nc(Nc3cncc(C)c3)cc(-c3cncc(C)c3)n2)CC[C@@H]1C (racemic) [Compound 00098, (+/−)-c/s-1-(2-methyl-5-(4-(5-methylpyridin-3-yl)-6-((5-methylpyridin-3-yl)amino)pyrimidin-2-yl)piperidin-1-yl)ethan-1-one]",< 0.2,–,–
"CC(=O)N1C[C@H](c2nc(Nc3ccc4nc(C)oc4c3)cc(-c3cccnc3)n2)CC[C@@H]1C [Compound 00037, 1-((2S,5R)-2-methyl-5-(4-((2-methylbenzo[d]oxazol-6-yl)amino)-6-(pyridin-3-yl)pyrimidin-2-yl)piperidin-1-yl)ethan-1-one]",0.2 to 1,–,–
"CC(=O)N1C[C@H](c2nc(Nc3ccc4[nH]nnc4c3)cc(-c3cccnc3)n2)CC[C@@H]1C [Compound 00033, 1-((2S,5R)-5-(4-((1H-benzo[d][1,2,3]triazol-5-yl)amino)-6-(pyridin-3-yl)pyrimidin-2-yl)-2-methylpiperidin-1-yl)ethan-1-one]",0.2 to 1,–,–
COc1cncc(-c2cc(Nc3cccc(F)c3)nc([C@H]3CC[C@@H](C)N(C(C)=O)C3)n2)c1 [Compound 00003],–,> 10,–
